Data from PMC12330005, “Mechanism mediating the biosynthesis of the anti-insect volatile (Z)-3-hexenyl acetate in Acacia confusa Merr., an intercropping plant in tea plantations” (Molecular Horticulture, 2025).

Tested on: T1, AcAAT4
T1 construct: pET32a-His fusion, expressed in E. coli BL21, Ni-NTA purified; tag cleavage not mentioned
Assay: GC-MS of SPME-collected (Z)-3-hexenyl acetate, varied (Z)-3-hexenol
Format: biochemical, Acacia confusa
Conditions: acetyl-CoA co-substrate; 50 mM Tris-HCl pH 7.4 in methods (text: optimal conditions pH 7.5-8); 30 °C

Km: 54.6 µM
SMILES: CC/C=C\CCO [(Z)-3-hexenol]
